{"source": "patent US12624128B2", "about": "“Low molecular weight chondroitin sulfate, composition, preparation method and use thereof” (NANJING HANXIN PHARMACEUTICAL TECHNOLOGY CO., LTD., priority 2019, dated 2026)", "key": {"osteoporosis rats [1]": {"tested_on": "osteoporosis rats", "test": "Bone phosphorus level, osteoporosis rats (Example 24)", "format": "in vivo", "conditions": "male rats; CSO low-dose (3.8 mg/kg)+calcium acetate 158 mg/kg; compared with model group, P<0.05, P<0.01", "description": "(§1) Ninety female SD rats weighing 200-220 g were used. The rats adapted to the environment for 3 d. Fasting but freely taking water for 24 h before surgery. Rats were injected intraperitoneally with 3% chloral hydrate and anesthetised. Ten […] were used as the sham-operated group with longitudinal incisions on the skin and muscle from both sides of the lumbar and dorsal spine without removing the ovaries. For the other animals, longitudinal incisions were made from both sides of the lumbar and dorsal spine to cut the skin and muscle, and both ovaries were removed, and the wounds were sutured. All animals were intramuscular injected with penicillin for 3 consecutive days after operation. (Male rats were operated with the same method to remove testicles).\n(§2) On the second day after surgery, ovariectomized rats were randomly divided into 8 groups with […] in each group:\n(§3) On the second day after surgery, rats were given by intragastric administration with an administration volume of 0.2 mL/100 g. The sham-operated group and model group were given in the same volume of normal saline. […]\n(§4) The rats were sacrificed, and the femur on both sides was separated. The right femur was taken and measured for the following indexes: bone weight coefficient (g/100 g body weight), bone density, ash level, bone calcium or bone phosphorus, bone hydroxyproline, HE pathology. […]"}, "osteoporosis rats [2]": {"tested_on": "osteoporosis rats", "test": "Femoral ash level, osteoporosis rats (Example 24)", "format": "in vivo", "conditions": "male rats; CSO high, medium and low dose (15, 7.5, 3.8 mg/kg)+calcium acetate 158 mg/kg; compared with model group, P<0.01, P<0.05", "description": "as §1, §2, §3, §4"}}}
{"smiles": "CC(=O)[O-].CC(=O)[O-].[Ca+2]", "note": "[Ca, Calcium acetate]", "values": [{"measurement": "bone phosphorus level", "setting": "osteoporosis rats [1]", "result": "significantly increased"}, {"measurement": "level of femoral ashes", "setting": "osteoporosis rats [2]", "result": "significantly increased"}]}
